According to ChEMBL document CHEMBL5537136 (J Med Chem, 2024):
The source made the active and inactive calls. No cut-off for these calls is given here.

How the values were obtained:
[1] = molecular target: Cytochrome P450 2D6 (Homo sapiens, UniProt P10635); assay: Inhibition of CYP2D6 (unknown origin); type: ADME
[2] = C0 in ICR mouse at 1 mg/kg, iv measured upto 24 hrs by LC-MS/MS analysis; type: ADME, organism-based; details: in vivo
[3] = AUC (0 to infinity) in ICR mouse at 1 mg/kg, iv measured upto 24 hrs by LC-MS/MS analysis; type: ADME, organism-based; details: in vivo
[4] = Toxicity in Balb/c mouse bearing mouse CT26 cells assessed as morphological changes in lung at 6.25 to 25 mg/kg, IG measured after 14 days by hematoxylin and eosin staining based assay; type: organism-based; details: in vivo, po, 336 h, dose 6.25-25 mg/kg, time 14 day
[5] = Cmax in ICR mouse at 1 mg/kg, iv measured upto 24 hrs by LC-MS/MS analysis; type: ADME, organism-based; details: in vivo
[6] = system: CT26; assay: Antitumor activity against mouse CT26 cells implanted in Balb/c mouse assessed as increase in infiltration of CD3 positive CD8 positive T lymphocytes in tumors at 25 mg/kg, IG measured after 14 days by flow cytometry; type: functional, organism-based; details: time 14.0 day
[7] = system: CT26; assay: Antitumor activity in immunocompetent mouse CT26 cell bearing mouse model assessed as tumor growth inhibition at 12.5 mg/kg, IG treated twice a day measured after 14 days relative to control; type: functional; details: CT26, po, 336 h, time 14 day, read-out: TGI
[8] = system: CT26; assay: cells; details: Mus musculus, CT26, 144 h
[9] = system: CT26; assay: Antitumor activity in immunocompetent mouse CT26 cell bearing mouse model assessed as tumor growth inhibition at 6.25 mg/kg, IG treated twice a day measured after 14 days relative to control; type: functional; details: CT26, po, 336 h, time 14 day, read-out: TGI
[10] = system: CT26; assay: Antitumor activity against mouse CT26 cells implanted in Balb/c mouse assessed as increase in infiltration of CD3 positive CD4 positive T lymphocytes in tumors at 25 mg/kg, IG measured after 14 days by flow cytometry; type: functional, organism-based; details: time 14.0 day
[11] = system: CT26; assay: Antitumor activity in immunocompetent mouse CT26 cell bearing Balb/c mouse model assessed as induction of IFN-beta release in tumor tissue at 6.25 to 25 mg/kg, IG treated twice a day measured after 14 days by immunohistochemistry staining based assay; type: functional, organism-based; details: dose lower 6.25 mg/kg, dose upper […], time 14.0 day
[12] = system: CT26; assay: Antitumor activity in immunocompetent Balb/c mouse CT26 cell bearing mouse model assessed as change in tumor cell morphology at 6.25 to 25 mg/kg, IG treated twice a day measured after 14 days by hematoxylin and eosin staining based assay; type: functional, organism-based; details: dose lower 6.25 mg/kg, dose upper […], time 14.0 day
[13] = molecular target: T1, Protein mono-ADP-ribosyltransferase TIPARP (Mus musculus) (UniProt Q8C1B2); assay: Inhibition of PARP7 in mouse CT26 cells assessed as increase in STAT1 phosphorylation incubated for 3 days by Western blot analysis; type: cell-based; details: dose 0.14-4 µM, time 3.0 day
T1 sequence (whole entry): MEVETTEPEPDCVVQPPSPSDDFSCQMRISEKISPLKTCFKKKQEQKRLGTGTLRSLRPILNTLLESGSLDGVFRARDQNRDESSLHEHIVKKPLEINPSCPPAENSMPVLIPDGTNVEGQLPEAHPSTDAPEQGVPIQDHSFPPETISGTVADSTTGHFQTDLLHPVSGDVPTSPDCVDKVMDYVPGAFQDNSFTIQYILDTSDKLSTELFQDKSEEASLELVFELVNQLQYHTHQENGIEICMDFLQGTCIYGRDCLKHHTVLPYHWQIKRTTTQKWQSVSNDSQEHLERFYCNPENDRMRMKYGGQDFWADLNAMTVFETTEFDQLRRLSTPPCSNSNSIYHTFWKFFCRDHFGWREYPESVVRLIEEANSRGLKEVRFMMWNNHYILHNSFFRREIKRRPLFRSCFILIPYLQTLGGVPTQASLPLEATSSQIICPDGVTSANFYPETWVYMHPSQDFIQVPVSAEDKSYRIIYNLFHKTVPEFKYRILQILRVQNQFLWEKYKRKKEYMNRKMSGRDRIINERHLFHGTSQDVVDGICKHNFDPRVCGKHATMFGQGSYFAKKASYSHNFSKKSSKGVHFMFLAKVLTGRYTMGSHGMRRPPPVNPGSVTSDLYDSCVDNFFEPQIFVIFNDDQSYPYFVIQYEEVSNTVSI

[14] = Acute toxicity in ICR mouse assessed as change in body weight at 500 mg/kg, po measured after 7 days; type: organism-based; details: in vivo, 168 h, time 7 day
[15] = Tmax in ICR mouse at 10 mg/kg, IG measured upto 24 hrs by LC-MS/MS analysis; type: ADME, organism-based; details: in vivo, po
[16] = Clearance in ICR mouse at 1 mg/kg, iv measured upto 24 hrs by LC-MS/MS analysis; type: ADME, organism-based; details: in vivo
[17] = Half life in ICR mouse at 10 mg/kg, IG measured upto 24 hrs by LC-MS/MS analysis; type: ADME, organism-based; details: in vivo, po

Sequence of Cytochrome P450 2D6 (P10635 whole entry): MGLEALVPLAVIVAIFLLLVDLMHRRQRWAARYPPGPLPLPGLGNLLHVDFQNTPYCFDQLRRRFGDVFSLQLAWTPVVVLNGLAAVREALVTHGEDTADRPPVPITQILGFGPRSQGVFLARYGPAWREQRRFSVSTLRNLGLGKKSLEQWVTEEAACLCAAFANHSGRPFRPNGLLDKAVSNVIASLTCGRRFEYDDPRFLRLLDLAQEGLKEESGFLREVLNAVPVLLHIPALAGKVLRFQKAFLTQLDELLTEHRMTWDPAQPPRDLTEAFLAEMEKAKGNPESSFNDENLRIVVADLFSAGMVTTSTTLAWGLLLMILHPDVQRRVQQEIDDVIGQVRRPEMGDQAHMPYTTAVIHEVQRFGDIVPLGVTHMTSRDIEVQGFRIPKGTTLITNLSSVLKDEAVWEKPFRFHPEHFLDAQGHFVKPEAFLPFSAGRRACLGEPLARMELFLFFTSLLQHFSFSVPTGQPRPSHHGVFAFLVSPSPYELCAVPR

C[C@@H](C(=O)N1CCN(c2ncc(C(F)(F)F)cn2)CC1)n1cc2cccc(C(N)=O)c2n1
IC50 [1]: > 30 µM
C0 at 24 h [2]: 1590 ng/mL
AUC(0-inf) [3]: 1800 ng·h/mL
Activity [4]: Non-Toxic
Cmax [5]: 1360 ng/mL
Activity [6]: Active
inhibition in vivo at 12.5 mg/kg [7]: 53%
IC50 [8]: 36.1 µM
inhibition in vivo at 6.25 mg/kg [9]: 42%
Activity [10]: Active
Activity [11]: Active
Activity [12]: Active
inhibition [13]: Dose-Dependent Effect
Activity [14]: Non-Toxic
Tmax [15]: 0.5 h
clearance [16]: 9.62 mL/min/kg
half-life [17]: 1.76 h
